Experimental data as given in US20240246908A1 (ORION CORPORATION, priority 2021, published 2024).

Test system: YAP-TEAD
Assay: TEAD inhibition, Hippo Pathway TEAD Reporter MCF-7 luciferase assay
Assay type: cell-based
Conditions: Homo sapiens, MCF7, 24 h, Hippo Pathway TEAD Reporter MCF-7 cells, luciferase activity after 24 h; read-out: IC50 of the test compounds on YAP-TEAD inhibition (Group)
Experimental: TEAD inhibition was assayed using Hippo Pathway TEAD Reporter—MCF-7 cell line (BPS Bioscience, Catalog #: 60618) which contains firefly luciferase gene under the control of TEAD responsive elements. In the cell line, YAP1 remains in the nucleus inducing constitutive expression of luciferase reporter. Amount of expressed luciferase was detected using ONE-Glo Luciferase Assay System (Promega) and measuring plates with Enspire Multimode Plate Reader (PerkinElmer).
Hippo Pathway TEAD Reporter—MCF-7 cells were plated on white/clear Poly-D-Lysine coated 384 plates (Corning #356660) at the density of 8500 cells/well. Next day test compounds (11 concentrations with 4 replicates) and DMSO control (0.1%) were added to the plate. After 24 h cells were lysed and luciferase activity was measured. The half maximal inhibitory concentration (IC50) of the test compounds on YAP-TEAD inhibition was determined.

Row | SMILES | IC50
1 | COc1ccc(COc2cccc(F)c2)cc1NC(=O)[C@H]1NC(=O)C[C@@H]1C (racemic) [Compound 6, rac-(trans)-N-(5-((3-Fluorophenoxy)methyl)-2-methoxyphenyl)-3-methyl-5-oxopyrrolidine-2-carboxamide] | 0.301 to 2 µM
2 | COc1ccc(COc2cccc(F)c2)cc1NC(=O)[C@H]1NC(=O)C[C@H]1C (racemic) [Compound 20, rac-(cis)-N-(5-((3-Fluorophenoxy)methyl)-2-methoxyphenyl)-3-methyl-5-oxo-pyrrolidine-2-carboxamide] | 0.301 to 2 µM
3 | COc1ccc(Oc2ccc(C(F)(F)F)cc2)cc1NC(=O)[C@@H]1CCC(=O)N1 (stereo in doubt) [Compound 46, N-(2-Methoxy-5-(4-(trifluoromethyl)phenoxy)phenyl)-5-oxopyrrolidine-2-carboxamide] | 0.301 to 2 µM
4 | COc1ccc(Oc2cccc(F)c2)cc1NC(=O)C1CCC(=O)N1C(C)=O (centres unmarked) [Compound 2, 1-Acetyl-N-(5-(3-fluorophenoxy)-2-methoxyphenyl)-5-oxopyrrolidine-2-carboxamide] | 0.301 to 2 µM
5 | COc1ccc(COc2cccc(F)c2)cc1NC(=O)C1CCC(=O)N1C(C)=O (centres unmarked) [Compound 3, 1-Acetyl-N-(5-((3-fluorophenoxy)methyl)-2-methoxyphenyl)-5-oxopyrrolidine-2-carboxamide] | 0.301 to 2 µM
6 | COc1cc(OC)c(NC(=O)C2CCC(=O)N2)cc1COc1cccc(F)c1 (centres unmarked) [Compound 4, N-(5-((3-Fluorophenoxy)methyl)-2,4-dimethoxyphenyl)-5-oxopyrrolidine-2-carboxamide] | 0.301 to 2 µM
7 | COc1ccc(COc2cccc(F)c2)cc1NC(=O)C1CN(CCF)C1 [Compound 5, 1-(2-Fluoroethyl)-N-(5-((3-fluorophenoxy)methyl)-2-methoxyphenyl)azetidine-3-carboxamide] | 0.301 to 2 µM
8 | O=C1CC(C(=O)Nc2cccc(Oc3cccc(C(F)(F)F)c3)c2)N1 (centres unmarked) [Compound 7, 4-Oxo-N-(3-(3-(trifluoromethyl)phenoxy)phenyl)azetidine-2-carboxamide] | 0.301 to 2 µM
9 | COc1ccc(Oc2cccc(C(F)(F)F)c2)cc1NC(=O)CC1CCC(=O)N1 (centres unmarked) [Compound 9, N-(2-Methoxy-5-(3-(trifluoromethyl)phenoxy)phenyl)-2-(5-oxopyrrolidin-2-yl)acetamide] | 0.301 to 2 µM
10 | COc1ccc(Oc2cccc(C(F)(F)F)c2)cc1NC(=O)C1CCS(=O)(=O)C1 (centres unmarked) [Compound 12, N-(2-Methoxy-5-(3-(trifluoromethyl)phenoxy)phenyl)tetrahydrothiophene-3-carboxamide 1,1-dioxide] | 0.301 to 2 µM
11 | COc1ccc(COc2cccc(F)c2)cc1NC(=O)C1CCS(=O)(=O)N1C (centres unmarked) [Compound 13, N-(5-((3-Fluorophenoxy)methyl)-2-methoxyphenyl)-2-methylisothiazolidine-3-carboxamide 1,1-dioxide] | 0.301 to 2 µM
12 | COc1ccc(Oc2cccc(C(F)(F)F)c2)cc1NC(=O)C1(C)CCC(=O)N1 (centres unmarked) [Compound 14, N-(2-Methoxy-5-(3-(trifluoromethyl)phenoxy)phenyl)-2-methyl-5-oxopyrrolidi-ne-2-carboxamide] | 0.301 to 2 µM
13 | COc1ccc(Oc2cccc(F)c2)cc1NC(=O)C1(C)CCC(=O)N1 (centres unmarked) [Compound 15, N-(5-(3-Fluorophenoxy)-2-methoxyphenyl)-2-methyl-5-oxopyrrolidine-2-carboxamide] | 0.301 to 2 µM
14 | O=C1CCC(C(=O)Nc2cccc(Oc3cccc(C(F)(F)F)c3)c2)N1 (centres unmarked) [Compound 16, 5-Oxo-N-(3-(3-(trifluoromethyl)phenoxy)phenyl) pyrrolidine-2-carboxamide] | 0.301 to 2 µM
15 | COc1ccc(COc2cccc(F)c2)cc1NC(=O)C1(C)CCNC1=O (centres unmarked) [Compound 26, N-(5-((3-Fluorophenoxy)methyl)-2-methoxyphenyl)-3-methyl-2-oxopyrrolidine-3-carboxamide] | 0.301 to 2 µM
16 | O=C1CCC(C(=O)Nc2cc(COc3cccc(F)c3)cc3c2OCO3)N1 (centres unmarked) [Compound 27, N-(6-((3-Fluorophenoxy)methyl)benzo[d][1,3]dioxol-4-yl)-5-oxopyrrolidine-2-carboxamide] | 0.05 to 0.3 µM
17 | COc1ccc(Oc2cccc(C(F)(F)F)c2)cc1NC(=O)C1CCC(=O)N1C(C)=O (centres unmarked) [Compound 29, 1-Acetyl-N-(2-methoxy-5-(3-(trifluoromethyl)phenoxy)phenyl)-5-oxo-pyrrolidine-2-carboxamide] | 0.05 to 0.3 µM
18 | O=C1CCC(C(=O)Nc2cc(COc3cccc(F)c3)cc3c2OCC3)N1 (centres unmarked) [Compound 31, N-(5-((3-Fluorophenoxy)methyl)-2,3-dihydrobenzofuran-7-yl)-5-oxopyrrolidine-2-carboxamide] | 0.301 to 2 µM
19 | CN1C(=O)CCC1C(=O)Nc1cc(COc2cccc(F)c2)cc2c1OCC2 (centres unmarked) [Compound 32, N-(5-((3-Fluorophenoxy)methyl)-2,3-dihydrobenzofuran-7-yl)-1-methyl-5-oxo-pyrrolidine-2-carboxamide] | 0.05 to 0.3 µM
20 | CN1C(=O)CCC1C(=O)Nc1cc(Oc2cccc(C(F)(F)F)c2)cc2c1OCO2 (centres unmarked) [Compound 34, 1-Methyl-5-oxo-N-(6-(3-(trifluoromethyl)phenoxy)benzo[d][1,3]dioxol-4-yl)-pyrrolidine-2-carboxamide] | 0.05 to 0.3 µM
21 | COc1c(F)cc(COc2cccc(F)c2)cc1NC(=O)C1CCC(=O)N1C (centres unmarked) [Compound 35, N-(3-Fluoro-5-((3-fluorophenoxy)methyl)-2-methoxyphenyl)-1-methyl-5-oxo-pyrrolidine-2-carboxamide] | 0.301 to 2 µM

Further lines, results first:

Row | IC50 | SMILES
22 | 0.05 to 0.3 µM | COc1ccc(Oc2cccc(C(F)(F)F)c2)cc1NC(=O)[C@@H]1CCC(=O)N1C(C)=O (stereo in doubt) [Compound 30, 1-Acetyl-N-(2-methoxy-5-(3-(trifluoromethyl)phenoxy)phenyl)-5-oxo-pyrrolidine-2-carboxamide]
23 | < 0.05 µM | COc1ccc(Oc2ccc(C(F)(F)F)cc2)cc1NC(=O)[C@H]1CCC(=O)N1 (stereo in doubt) [Compound 45, N-(2-Methoxy-5-(4-(trifluoromethyl)phenoxy)phenyl)-5-oxopyrrolidine-2-carboxamide]
24 | 0.05 to 0.3 µM | COc1cc(NC(=O)C2CCC(=O)N2C)cc(OC2CCC(F)(F)CC2)c1 (stereo in doubt) [Compound 275, (R)—N-(3-((4,4-Difluorocyclohexyl)oxy)-5-methoxyphenyl)-1-methyl-5-oxo-pyrrolidine-2-carboxamide]
25 | < 0.05 µM | COc1ccc(Oc2ccc(C(F)(F)F)cc2)cc1NC(=O)C1CCC(=O)N1 (centres unmarked) [Compound 1, N-(2-Methoxy-5-(4-(trifluoromethyl)phenoxy)phenyl)-5-oxo-pyrrolidine-2-carboxamide]
26 | 0.05 to 0.3 µM | COc1ccc(Oc2cccc(C(F)(F)F)c2)cc1NC(=O)C1CC(=O)N1 (centres unmarked) [Compound 8, N-(2-Methoxy-5-(3-(trifluoromethyl)phenoxy)phenyl)-4-oxoazetidine-2-carboxamide]
27 | 0.05 to 0.3 µM | COc1ccc(Oc2cccc(C(F)(F)F)c2)cc1NC(=O)C1CCC(=O)N1 (centres unmarked) [Compound 10, N-(2-Methoxy-5-(3-(trifluoromethyl)phenoxy)phenyl)-5-oxopyrrolidine-2-carboxamide]
28 | 0.05 to 0.3 µM | COc1ccc(Oc2cccc(C(F)(F)F)c2)cc1NC(=O)C1CCC(=O)N1C (centres unmarked) [Compound 11, N-(2-Methoxy-5-(3-(trifluoromethyl)phenoxy)phenyl)-1-methyl-5-oxopyrro-lidine-2-carboxamide]
29 | 0.05 to 0.3 µM | O=C1CCC(C(=O)Nc2cc(COc3cccc(F)c3)cc3ccoc23)N1 (centres unmarked) [Compound 17, N-(5-((3-Fluorophenoxy)methyl)benzofuran-7-yl)-5-oxopyrrolidine-2-carboxamide]
30 | 0.05 to 0.3 µM | COc1ccc(Oc2cccc(F)c2)cc1NC(=O)C12CCC(=O)N1CCS2 (centres unmarked) [Compound 18, N-(5-(3-Fluorophenoxy)-2-methoxyphenyl)-5-oxotetrahydropyrrolo[2,1-b]-thiazole-7a(5H)-carboxamide]
31 | 0.05 to 0.3 µM | COc1ccc(Oc2cccc(C(F)(F)F)c2)cc1NC(=O)C12CCC(=O)N1CCS2 (centres unmarked) [Compound 19, N-(2-Methoxy-5-(3-(trifluoromethyl)phenoxy)phenyl)-5-oxotetrahydropyrrolo[2,1-b]thiazole-7a(5H)-carboxamide]
32 | < 0.05 µM | COc1ccc(/C=C/C2CCC(F)(F)CC2)cc1NC(=O)C1CCC(=O)N1 (centres unmarked) [Compound 21, (E)-N-(5-(2-(4,4-Difluorocyclohexyl)vinyl)-2-methoxyphenyl)-5-oxopyrroli-dine-2-carboxamide]
33 | < 0.05 µM | COc1ccc(/C=C/C2CCC(F)(F)CC2)cc1NC(=O)C1CCC(=O)N1C (centres unmarked) [Compound 22, (E)-N-(5-(2-(4,4-Difluorocyclohexyl)vinyl)-2-methoxyphenyl)-1-methyl-5-oxo-pyrrolidine-2-carboxamide]
34 | < 0.05 µM | COc1ccc(/C=C/C2CCC(F)(F)CC2)cc1NC(=O)[C@H]1CCC(=O)N1C [Compound 23]
35 | 0.05 to 0.3 µM | COc1ccc(/C=C/C2CCC(F)(F)CC2)cc1NC(=O)[C@@H]1CCC(=O)N1C [Compound 24]
36 | 0.05 to 0.3 µM | COc1ccc(Oc2cccc(F)c2)cc1NC(=O)[C@H]1CCC(=O)N1 [Compound 25, (R)—N-(5-(3-Fluorophenoxy)-2-methoxyphenyl)-5-oxopyrrolidine-2-carboxamide]
37 | < 0.05 µM | CN1C(=O)CCC1C(=O)Nc1cc(Oc2cccc(C(F)(F)F)c2)cc2ccoc12 (centres unmarked) [Compound 28, 1-Methyl-5-oxo-N-(5-(3-(trifluoromethyl)phenoxy)benzofuran-7-yl)pyrrolidine-2-carboxamide]
38 | < 0.05 µM | O=C1CCC(C(=O)Nc2cc(Oc3cccc(C(F)(F)F)c3)cc3c2OCO3)N1 (centres unmarked) [Compound 33, 5-Oxo-N-(6-(3-(trifluoromethyl)phenoxy)benzo[d][1,3]dioxol-4-yl)pyrrolidine-2-carboxamide]
